Experimental data published in EP1792618A1, “R-mirtazapine for the treatment of pain” (Freynhagen, Rainer, priority 2005, dated 2007).

Key:
neuropathic pain = settings: chronic constriction injury model, rats; cited from earlier work
acute thermal pain = test: Plantar test (radiant heat, Hargreaves): paw withdrawal latency after intrathecal injection; assay type: in vivo, Male Wistar rats; settings: for Paw withdrawal latencies: 240 minutes after injection, mean ± sem, vehicle 11.2 ± 0.24 s, cut-off 20 sec; for overall effect on acute thermal pain over the dose range tested: 0.001 to 1 mg/kg intrathecal; for time after injection of the maximum of pro- or antinociception: intrathecal injection
Protocol: The pro- or antinociceptive properties of (+/-)-mirtazapine and its enantiomers R(-)-mirtazapine and S(+)mirtazapine, respectively, were analyzed in acute thermal pain (Hargreaves et al., Pain, 32 (1988) 77-88). Male Wistar rats weighing 350-400 g (housed three per cage, access to foot and water ad libitum, room maintained at 22°C ± 0,5°C and on a 12:12 light- dark cycle) were anesthetized with intraperitoneal (i.p.) injection of pentobarbital (60 mg/kg i.p.). The rats were implanted with polyethylene catheters (inner diameter 0.28 mm, outer diameter 0.61 mm), which were advanced from the cisterna magna to the rostral edge of the lumbar enlargement as described before (Muth-Selbach et al., Anesthesiology, 101 (2004) 753-8; Ahmadi et al., Science, 300, (2003) 2094-2097; Zeilhofer et al., J Neurosci 20 (2000) 4922-9). Rats with impaired motor function after catheter implantation were excluded from the study. Paw withdrawal latencies were tested 6-10 days after surgery at all times in the same air conditioned room. The lateral plantar surface of both hind paws was exposed to a defined radiant heat stimulus through a transparent perspex surface (Plantar Test, Hugo Basile Inc., Italy, Comerio) and paw withdrawal latencies were recorded (Hargreaves et al., op.cit.). The animal is unrestrained and unhandled during experiments. When the rat feels pain and withdraws its paw, the sudden drop of reflected radiation switches off the I.R. source and stops the reaction time counter so that the withdrawal latency to the nearest 0.1 s is determined. Paw withdrawal latencies of both hind paws were determined from 4 independent measurements for each time point. A cut-off time of 20 sec was set to avoid tissue damage.
Behavior as described above was tested before and 120, 240 min and 24 hours after application of either substance. In order to find the maximum effect over time, groups of 4 animals were tested before and 30, 60, 120, 180, 240 min and 24 hours after application of 0.1 mg/kg (+/-)-mirtazapine.
(+/-)-Mirtazapine, R(-)-mirtazapine, S(+)mirtazapine or vehicle (0.9% NaCl) were applied to the cerebrospinal fluid via intrathecal catheters in a total volume of 10 µl. Rats were randomly assigned to the different treatment groups consisting of 6 to 9 rats each. All behavioral observations were performed in a standardized blinded fashion.
After the behavioral tests, rats were sacrificed by a lethal dose of pentobarbital i.p.. Proper position of the catheter tip was verified after laminectomy and methylene blue injection through the catheter. All behavioral tests were performed with permission of the German authorities concerned with the law on experiments involving animals and were in accordance with the guidelines of the International Association for the Study of Pain.
(+/-)-Mirtazapine (1, 2, 3, 4, 10, 14b-Hexahydro-2-methyl-pyrazino-[2, 1-a] pyrido [2, 3-c] [2] benzazepin, free base), R(-)-mirtazapine and S(+)-mirtazapine maleate salt were generously donated by N.V. Organon, Oss (The Netherlands) and were of the highest quality available. All chemicals were dissolved in 0.9 % NaCl and stored in aliquots at - 70°C. Fresh dilutions were made with 0.9 % NaCl on every experimental day.
Group data are presented as mean + standard error of the mean(sem). Withdrawal latencies in the different treatment groups were analyzed by analysis of variance (repeated measurements) followed by LSD post hoc tests (SAS Software System). P ≤ 0.05 was assumed significant. In detail, for each dose (i.e. 1, 0.1, 0.01 and 0.001 mg/kg) twelve comparisons were made at five time points.

[1] = tested on: acute nociceptive responses; settings: rats; cited from earlier work
[2] = tested on: hypothermic response to a 5-HT1-agonist; settings: normal rats, chronic administration; compared with one of the enantiomers alone; cited from earlier work
thermal pain = settings: 3-30 mg/kg intraperitoneally, rats; cited from earlier work
[3] = tested on: α2-adrenergic autoreceptors; settings: compared with R(-)-mirtazapine; cited from earlier work
[4] = 0.001 mg/kg intrathecal (lowest dose)
[5] = 0.01 mg/kg intrathecal, time points 120, 240 minutes, 24 hours as stated per substance
[6] = 0.1 mg/kg intrathecal, time points 120, 240 minutes, 24 hours as stated per substance
[7] = 1 mg/kg intrathecal, time points 120, 240 minutes, 24 hours as stated per substance

Compound | mechanical allodynia (neuropathic pain) | mechanical hyperalgesia (neuropathic pain) | thermal hyperalgesia (neuropathic pain) | pro- or antinociceptive effect (acute thermal pain; [4]) | Paw withdrawal latencies (acute thermal pain; 0.001 mg/kg intrathecal) [s] | Paw withdrawal latencies (acute thermal pain; 0.01 mg/kg intrathecal) [s] | pro- or antinociceptive effect (acute thermal pain; [5]) | Paw withdrawal latencies (acute thermal pain; 0.1 mg/kg intrathecal) [s] | pro- or antinociceptive effect (acute thermal pain; [6]) | Paw withdrawal latencies (acute thermal pain; 1 mg/kg intrathecal) [s] | pro- or antinociceptive effect (acute thermal pain; [7]) | overall effect on acute thermal pain over the dose range tested (acute thermal pain) | time after injection of the maximum of pro- or antinociception (acute thermal pain) [min] | acute nociceptive responses in the tail flick test [1] | hypothermic response to a 5-HT1-agonist [2] | antinociceptive activity in thermal pain (hot plate) (thermal pain) | potency as blocker of α2-adrenergic autoreceptors [3]
CN1CCN2c3ncccc3Cc3ccccc3C2C1 (racemic) [(+/-)-mirtazapine, 1,2,3,4, 10, 14b-Hexahydro-2-methyl-pyrazino-[2,1-a] pyrido [2,3-c] [2] benzazepin] | not | significantly attenuated | significantly attenuated | neither pro- nor antinociceptive | 11.5 ± 0.9 | 14.5 ± 1.0 | antinociceptive | 14.4 ± 0.3 | antinociceptive | 6.9 ± 0.4 | profound pronociceptive effect | dose-dependently exerted pro- and- antinociceptive activity | 240 | did not affect | potentiated | exhibited antinociceptive activity | –
CN1CCN2c3ncccc3Cc3ccccc3[C@@H]2C1 [R(-)-mirtazapine] | – | – | – | neither pro- nor antinociceptive | 11.3 ± 0.9 | 15.6 ± 0.6 | antinociceptive | 13.8 ± 0.4 | antinociceptive | 13.5 ± 0.5 | antinociceptive | only elicited antinociceptive effects | 240 | – | – | – | –
CN1CCN2c3ncccc3Cc3ccccc3[C@H]2C1 [S(+)-mirtazapine] | – | – | – | neither pro- nor antinociceptive | 8.7 ± 0.8 | 8.4 ± 1.1 | pronociceptive | 8.1 ± 1.0 | pronociceptive | 7.4 ± 0.4 | pronociceptive | exclusively pronociceptive | 240 | – | – | – | more potent blocker
